According to patent US9216973B2, “Insecticidal compounds” (Syngenta Participations AG, priority 2008, dated 2015):

System: Spodoptera littoralis (Egyptian cotton leafworm)
Test: Spodoptera littoralis cotton leaf disc spray test
Type: in vivo
Conditions: for pest or weed control at 200 ppm: foliar, 72 h, 200 ppm spray on cotton leaf discs, L1 larvae, mortality, feeding behavior, growth regulation 3 days after treatment; for effect on mortality, feeding behavior, or growth regulation: same protocol, 200 ppm
Procedure: This Example illustrates the insecticidal and acaricidal properties of compounds of formula (I). The tests were performed as follows:
Spodoptera littoralis (Egyptian cotton leafworm):
Cotton leaf discs were placed on agar in a 24-well microtiter plate and sprayed with test solutions at an application rate of 200 ppm. After drying, the leaf discs were infested with 5 L1 larvae. The samples were checked for mortality, feeding behavior, and growth regulation 3 days after treatment (DAT). The following compound gave at least 80% control of Spodoptera littoralis: A1, A2, A5, A6, A7, A8, A10, A11, A12, A13, A14, A15, A16, A17, A18, A19, A21, A22, A23, A24, A25, A30, A31, A32, A33, A34, A35, A39, A40, A41 A42, A43, A44, A45, A46, A47, A48, A49, A50, A51, A53, A54, A55, A59, A60, A61, A62. Heliothis virescens (Tobacco budworm): Eggs (0-24 h old) were placed in 24-well microtiter plate on artificial diet and treated with test solutions at an application rate of 200 ppm (concentration in well 18 ppm) by pipetting. After an incubation period of 4 days, samples were checked for egg mortality, larval mortality, and growth regulation. The following compound gave at least 80% control of Heliothis virescens: A1, A2, A3, A4, A5, A6, A7, A8, A10, A11, A12, A13, A14, A15, A16, A18, A19, A21, A22, A24, A25, A30, A31, A32, A33, A34, A35, A37, A38, A39, A40, A42, A43, A44, A45, A46, A47, A48, A49, A50, A51, A55, AA57, A58, A59, A60, A61, A62. Plutella xylostella (Diamond back moth): 24-well microtiter plate (MTP) with artificial diet was treated with test solutions at an application rate of 200 ppm (concentration in well 18 ppm) by pipetting. After drying, the MTP's were infested with L2 larvae (7-12 per well). After an incubation period of 6 days, samples were checked for larval mortality and growth regulation. The following compound gave at least 80% control of Plutella xylostella: A1, A2, A5, A6, A7, A8, A9, A10, A11, A12, A13, A14, A15, A16, A17, A18, A19, A20, A21, A22, A24, A25, A30, A31, A32, A33, A34, A35, A37, A38, A39, A40, A42, A43, A44, A45, A46, A47, A48, A49, A50, A51, A52, A53, A54, A55, A57, A58, A59, A60, A61, A62, B3. Diabrotica balteata (Corn root worm): A 24-well microtiter plate (MTP) with artificial diet was treated with test solutions at an application rate of 200 ppm (concentration in well 18 ppm) by pipetting. After drying, the MTP's were infested with L2 larvae (6-10 per well). After an incubation period of 5 days, samples were checked for larval mortality and growth regulation. The following compound gave at least 80% control of Diabrotica balteata: A1, A2, A5, A6, A7, A10, A11, A12, A13, A14, A15, A16, A17, A18, A19, A21, A22, A24, A25, A30, A31, A32, A33, A34, A35, A38, A39, A40, A42, A43, A44, A45, A46, A47, A48, A49, A50, A59, A60, A61, A62. Thrips tabaci (Onion thrips): Sunflower leaf discs were placed on agar in a 24-well microtiter plate and sprayed with test solutions at an application rate of 200 ppm. After drying, the leaf discs were infested with an […] population of mixed ages. After an incubation period of 7 days, samples were checked for mortality. The following compounds gave at least 80% control of Thrips tabaci: A1, A2, A5, A6, A7, A8, A10, A12, A13, A14, A15, A16, A17, A18, A19, A21, A24, A25, A30, A31, A32, A33, A34, A35, A39, A42, A43, A44, A45, A46, A47, A48, A49, A50, A51, A53, A54, A57, A58, A59, A60, A61, A62. Tetranychus urticae (Two-spotted spider mite): Bean leaf discs on agar in 24-well microtiter plates were sprayed with test solutions at an application rate of 200 ppm. After drying, the leaf discs are infested with mite populations of mixed ages. 8 days later, discs are checked for egg mortality, larval mortality, and adult mortality. […]

SMILES	pest or weed control at 200 ppm [%]	effect on mortality, feeding behavior, or growth regulation
Cc1cc(C2=NOC(c3cc(Cl)cc(Cl)c3)(C(F)(F)F)C2Br)ccc1C(=O)NC1C[S+]([O-])C1 (centres unmarked) [A7]	≥ 80	–
Cc1cc(C2=NCC(c3cc(Cl)cc(Cl)c3)(C(F)(F)F)C2)ccc1C(=O)NC1C[S+]([O-])C1 (centres unmarked) [A48]	≥ 80	–
Cc1cc(C2=NOC(c3cc(Cl)cc(Cl)c3)(C(F)(F)F)C2F)ccc1C(=O)NC1CS(=O)(=O)C1 (centres unmarked) [A59]	≥ 80	–
Cc1cc(C2=NOC(c3cc(Cl)cc(Cl)c3)(C(F)(F)F)C2F)ccc1C(=O)NC1(C)CSC1 (centres unmarked) [A60]	≥ 80	–
Cc1cc(C2=NOC(c3cc(Cl)cc(Cl)c3)(C(F)(F)F)C2O)ccc1C(=O)NC1C[S+]([O-])C1 (centres unmarked) [A53]	≥ 80	–
Cc1cc(C2=NOC(c3cc(Cl)cc(Cl)c3)(C(F)(F)F)C2F)ccc1C(=O)NC1CSC1 (centres unmarked) [A61]	≥ 80	–
O=C(NC1CS(=O)(=O)C1)c1ccc(C2=NOC(c3cc(Cl)cc(Cl)c3)(C(F)(F)F)C2)c2nsnc12 (centres unmarked) [A22]	≥ 80	–
Cc1cc(C2=NN(C)C(c3cc(Cl)cc(Cl)c3)(C(F)(F)F)C2)ccc1C(=O)NC1CSC1 (centres unmarked) [A14]	≥ 80	–
Cc1cc(C2=NOC(c3cc(Cl)cc(Cl)c3)(C(F)(F)F)C2Cl)ccc1C(=O)NC1(C)CSC1 (centres unmarked) [A33]	≥ 80	–
Cc1cc(C2=NOC(c3cc(Cl)cc(Cl)c3)(C(F)(F)F)C2O)ccc1C(=O)NC1CSC1 (centres unmarked) [A54]	≥ 80	–
Cc1nc2c(C3=NOC(c4cc(Cl)cc(Cl)c4)(C(F)(F)F)C3)ccc(C(=O)NC3(C)CSC3)c2o1 (centres unmarked) [A27]	–	little or no effect
CC1(NC(=O)c2ccc(C3=NOC(c4cc(Cl)cc(Cl)c4)(C(F)(F)F)C3)c3ccccc23)CSC1 (centres unmarked) [A1]	≥ 80	–
O=C(NC1CS(=O)(=O)C1)c1ccc(C2=NOC(c3cc(Cl)cc(Cl)c3)(C(F)(F)F)C2Br)c2ccccc12 (centres unmarked) [A42]	≥ 80	–
O=C(NC1CS(=O)(=O)C1)c1ccc(C2=NOC(c3cc(Cl)cc(Cl)c3)(C(F)(F)F)C2)c2ccccc12 (centres unmarked) [A15]	≥ 80	–
Cc1cc(C2=NOC(c3cc(Cl)cc(Cl)c3)(C(F)(F)F)C2Br)ccc1C(=O)NC1(C)CSC1 (centres unmarked) [A5]	≥ 80	–
Cc1cc(C2=NOC(c3cc(Cl)cc(Cl)c3)(C(F)(F)F)C2Cl)ccc1C(=O)NC1CS(=O)(=O)C1 (centres unmarked) [A32]	≥ 80	–
Cc1cc(C2=NOC(c3cc(Cl)cc(Cl)c3)(C(F)(F)F)C2O)ccc1C(=O)NC1CS(=O)(=O)C1 (centres unmarked) [A51]	≥ 80	–
Cc1cc(C2=NOC(c3cc(Cl)cc(Cl)c3)(C(F)(F)F)C2Cl)ccc1C(=O)NC1C[S+]([O-])C1 (centres unmarked) [A34]	≥ 80	–
Cc1cc(C2CC(c3cc(Cl)cc(Cl)c3)(C(F)(F)F)ON2C)ccc1C(=O)NC1C[S+]([O-])C1 (centres unmarked) [A18]	≥ 80	–
Cc1cc(C2=NN(C)C(c3cc(Cl)cc(Cl)c3)(C(F)(F)F)C2)ccc1C(=O)NC1C[S+]([O-])C1 (centres unmarked) [A13]	≥ 80	–
Cc1cc(C2CC(c3cc(Cl)cc(Cl)c3)(C(F)(F)F)ON2C)ccc1C(=O)NC1CSC1 (centres unmarked) [A21]	≥ 80	–

SMILES	pest or weed control at 200 ppm [%]	effect on mortality, feeding behavior, or growth regulation
Cc1cc(C2=NOC(c3cc(Cl)cc(Cl)c3)(C(F)(F)F)O2)ccc1C(=O)NC1CSC1 (centres unmarked) [A17]	≥ 80	–
Cc1cc(C2=NOC(c3cc(Cl)cc(Cl)c3)(C(F)(F)F)/C2=N/O)ccc1C(=O)NC1(C)CSC1 (centres unmarked) [A56]	–	little or no effect
Cc1cc(C2=NN(C)C(c3cc(Cl)cc(Cl)c3)(C(F)(F)F)C2)ccc1C(=O)NC1(C)CSC1 (centres unmarked) [A12]	≥ 80	–
Cc1cc(C2=NCC(c3cc(Cl)cc(Cl)c3)(C(F)(F)F)C2)ccc1C(=O)NC1(C)CSC1 (centres unmarked) [A47]	≥ 80	–
Cc1nc2c(C3=NOC(c4cc(Cl)cc(Cl)c4)(C(F)(F)F)C3)ccc(C(=O)NC3C[S+]([O-])C3)c2o1 (centres unmarked) [A28]	–	little or no effect
Cc1cc(N2CC(c3cc(Cl)cc(Cl)c3)(C(F)(F)F)OC2=O)ccc1C(=O)NC1CSC1 (centres unmarked) [A11]	≥ 80	–
O=C(NC1CSC1)c1ccc(C2=NOC(c3cc(Cl)cc(Cl)c3)(C(F)(F)F)C2)c2ccccc12 (centres unmarked) [A2]	≥ 80	–
O=C(NC1C[S+]([O-])C1)c1ccc(C2=NOC(c3cc(Cl)cc(Cl)c3)(C(F)(F)F)C2)c2ccccc12 (centres unmarked) [A16]	≥ 80	–
Cc1nc2c(C3=NOC(c4cc(Cl)cc(Cl)c4)(C(F)(F)F)C3)ccc(C(=O)NC3CS(=O)(=O)C3)c2o1 (centres unmarked) [A26]	–	little or no effect
CC1(NC(=O)c2cccc3c(C4=NOC(c5cc(Cl)cc(Cl)c5)(C(F)(F)F)C4)cccc23)CSC1 (centres unmarked) [A36]	–	little or no effect
Cc1cc(C2=NOC(c3cc(Cl)cc(Cl)c3)(C(F)(F)F)C2Br)ccc1C(=O)NC1CSC1 (centres unmarked) [A6]	≥ 80	–
Cc1cc(C2=NCC(c3cc(Cl)cc(Cl)c3)(C(F)(F)F)C2)ccc1C(=O)NC1CSC1 (centres unmarked) [A49]	≥ 80	–
Cc1cc(C2=NCC(c3cc(Cl)cc(Cl)c3)(C(F)(F)F)C2)ccc1C(=O)NC1CS(=O)(=O)C1 (centres unmarked) [A46]	≥ 80	–
Cc1cc(C2CC(c3cc(Cl)cc(Cl)c3)(C(F)(F)F)ON2C)ccc1C(=O)NC1CS(=O)(=O)C1 (centres unmarked) [A19]	≥ 80	–
Cc1cc(C2=NOC(c3cc(Cl)cc(Cl)c3)(C(F)(F)F)/C2=N/O)ccc1C(=O)NC1CS(=O)(=O)C1 (centres unmarked) [A55]	≥ 80	–
O=C(NC1C[S+]([O-])C1)c1ccc(C2=NOC(c3cc(Cl)cc(Cl)c3)(C(F)(F)F)C2Br)c2ccccc12 (centres unmarked) [A44]	≥ 80	–
Cc1cc(N2CC(c3cc(Cl)cc(Cl)c3)(C(F)(F)F)OC2=O)ccc1C(=O)NC1C[S+]([O-])C1 (centres unmarked) [A10]	≥ 80	–
Cc1nc2c(C3=NOC(c4cc(Cl)cc(Cl)c4)(C(F)(F)F)C3)ccc(C(=O)NC3CSC3)c2o1 (centres unmarked) [A29]	–	little or no effect
CC1(NC(=O)c2ccc(C3=NOC(c4cc(Cl)cc(Cl)c4)(C(F)(F)F)C3Br)c3ccccc23)CSC1 (centres unmarked) [A43]	≥ 80	–
Cc1cc(C2=NOC(c3cc(Cl)cc(Cl)c3)(C(F)(F)F)C2F)ccc1C(=O)NC1C[S+]([O-])C1 (centres unmarked) [A62]	≥ 80	–
